Experimental data as given in patent US20150246907A1 (ETH Zurich, priority 2012, published 2015).
Values after ≈ are worked out from the molar mass of the structure shown.

Tested on: Mycobacterium tuberculosis strain H37Rv
Experiment: Minimal inhibitory concentration (MIC) by resazurin microtitre assay (REMA)
Assay type: cell-based
Details: for MIC: Mycobacterium tuberculosis, 168 h, M. tuberculosis H37Rv, REMA, 7 days (10 generations), 96-well plate

| Structure (SMILES) | MIC [µg/mL] | activity against Mycobacterium tuberculosis (strain H37Rv) compared with pyridomycin (strain H37Rv, statement in words) |
| --- | --- | --- |
| CC(C)[C@H]1OC(=O)[C@H](C)[C@H](O)[C@H](Cc2cccnc2)NC(=O)[C@@H](NC(=O)c2ncccc2O)[C@@H](C)OC1=O [Analog 100b] | 1.56 (≈ 2.95 µM) | in the same range of inhibitory activity as for pyridomycin |
| CC(C)[C@@H]1OC(=O)[C@H](C)[C@H](O)[C@H](Cc2cccnc2)NC(=O)[C@@H](NC(=O)c2ncccc2O)[C@@H](C)OC1=O [Analog 100a] | 12.5 (≈ 23.6 µM) |  |
